Assays:
Experiment in all cases: relative viability (nuclei count vs DMSO), 5 days (fraction); higher = more cells survive
QS11 + Pictilisib = compound: C1CC2=C(C1)C=C(C=C2)OC3=NC(=C4C(=N3)N(C=N4)CC5=CC=C(C=C5)C6=CC=CC=C6)N[C@@H](CC7=CC=CC=C7)CO [QS11] + CS(=O)(=O)N1CCN(Cc2cc3nc(-c4cccc5[nH]ncc45)nc(N4CCOCC4)c3s2)CC1 [Pictilisib] (partner 1 µM)
Outline: (§1)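 A single step with final 0.05% Triton X-100, 1% formaldehyde and 1 ug/ml Hoechst fixed the cells and stained nuclei 5 days after treatment. Lung cancer cell lines in 1536-well plates had been treated by pin tool the day after seeding with one drug alone or a fixed anchor-drug dose plus five library-drug doses (not always all listed) in √10 steps, and nuclei were counted on 4× images. Relative viability is the ratio of nuclei in treated wells to nuclei in vehicle wells, taken as the median of duplicate plates.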

QS11 + Luminespib = compound: C1CC2=C(C1)C=C(C=C2)OC3=NC(=C4C(=N3)N(C=N4)CC5=CC=C(C=C5)C6=CC=CC=C6)N[C@@H](CC7=CC=CC=C7)CO [QS11] + CCNC(=O)c1noc(-c2cc(C(C)C)c(O)cc2O)c1-c1ccc(CN2CCOCC2)cc1 [Luminespib] (partner 0.01 µM)
Outline: as §1

QS11 + Bortezomib = compound: C1CC2=C(C1)C=C(C=C2)OC3=NC(=C4C(=N3)N(C=N4)CC5=CC=C(C=C5)C6=CC=CC=C6)N[C@@H](CC7=CC=CC=C7)CO [QS11] + CC(C)C[C@H](NC(=O)[C@H](Cc1ccccc1)NC(=O)c1cnccn1)B(O)O [Bortezomib] (partner 0.002 µM)
Outline: as §1

[1] = compound: C[As](C)SC[C@H](NC(=O)CC[C@H](N)C(=O)O)C(=O)NCC(=O)O [Darinaparsin] + CC(=O)Nc1cccc(-n2c(=O)n(C3CC3)c(=O)c3c(Nc4ccc(I)cc4F)n(C)c(=O)c(C)c32)c1 [Trametinib] (partner 0.02 µM)
Outline: as §1

| Cell Line | relative viability (QS11 + Pictilisib; first compound 0.08 µM) | relative viability (QS11 + Pictilisib; first compound 0.253 µM) | relative viability (QS11 + Pictilisib; first compound 0.8 µM) | relative viability (QS11 + Pictilisib; first compound 2.53 µM) | relative viability (QS11 + Pictilisib; first compound 8 µM) | relative viability (QS11 + Luminespib; first compound 0.08 µM) | relative viability (QS11 + Luminespib; first compound 0.253 µM) | relative viability (QS11 + Luminespib; first compound 0.8 µM) | relative viability (QS11 + Luminespib; first compound 2.53 µM) | relative viability (QS11 + Luminespib; first compound 8 µM) | relative viability (QS11 + Bortezomib; first compound 0.08 µM) | relative viability (QS11 + Bortezomib; first compound 0.253 µM) | relative viability (QS11 + Bortezomib; first compound 0.8 µM) | relative viability (QS11 + Bortezomib; first compound 2.53 µM) | relative viability (QS11 + Bortezomib; first compound 8 µM) | relative viability ([1]; first compound 0.08 µM) | relative viability ([1]; first compound 0.8 µM) | relative viability ([1]; first compound 2.53 µM) | relative viability ([1]; first compound 8 µM) |
| --- | --- | --- | --- | --- | --- | --- | --- | --- | --- | --- | --- | --- | --- | --- | --- | --- | --- | --- | --- |
| NCI-H1355 | 0.399 | 0.299 | 0.378 | 0.475 | 0.443 | 0.743 | 0.696 | 0.602 | 0.727 | 0.703 | 1.2 | 1.19 | 0.862 | 1.21 | 1.13 | 0.462 | 0.403 | 0.378 | 0.426 |
| NCI-H1437 | 0.421 | 0.468 | 0.38 | 0.41 | 0.399 | 1.15 | 1.2 | 1.11 | 1.05 | 0.947 | 0.569 | 0.325 | 0.459 | 0.402 | 0.336 | 0.594 | 0.562 | 0.505 | 0.674 |
| NCI-H1650 | 0.671 | 0.458 | 0.584 | 0.584 | 0.524 | 0.193 | 0.209 | 0.201 | 0.192 | 0.216 | 0.183 | 0.215 | 0.18 | 0.197 | 0.186 | 0.915 | 0.49 | 0.593 | 0.636 |
| NCI-H1651 | 0.604 | 0.657 | 0.53 | 0.471 | 0.439 | 1.05 | 0.923 | 0.75 | 0.714 | 0.752 | 0.954 | 1.06 | 0.804 | 0.959 | 0.994 | 0.825 | 0.784 | 0.813 | 0.898 |
| NCI-H1666 | 0.328 | 0.359 | 0.377 | 0.474 | 0.423 | 1.01 | 1.1 | 0.702 | 0.728 | 0.519 | 0.83 | 0.722 | 0.74 | 0.719 | 0.564 | 1.03 | 0.845 | 0.858 | 0.912 |
| NCI-H1734 | 0.44 | 0.433 | 0.408 | 0.38 | 0.358 | 0.2 | 0.199 | 0.186 | 0.179 | 0.168 | 0.932 | 0.913 | 0.848 | 0.822 | 0.738 | 0.724 | 0.611 | 0.655 | 0.677 |
| NCI-H1755 | 0.466 | 0.404 | 0.41 | 0.408 | 0.393 | 0.403 | 0.406 | 0.289 | 0.422 | 0.412 | 0.953 | 0.893 | 0.605 | 0.76 | 0.61 | 0.811 | 0.795 | 0.857 | 0.844 |
| NCI-H1792 |  | 0.238 | 0.289 | 0.235 | 0.307 | 0.432 | 0.417 | 0.386 | 0.369 | 0.409 |  | 1.06 | 0.684 | 1.01 | 1.07 | 0.513 | 0.52 |  | 0.557 |
| NCI-H1915 | 0.958 | 0.932 |  | 0.896 | 0.937 | 0.952 | 0.959 |  | 0.766 | 0.447 | 0.985 | 1.08 |  | 0.967 | 0.979 | 0.336 | 0.301 | 0.288 | 0.3 |
| NCI-H1975 | 0.289 | 0.234 | 0.327 | 0.364 | 0.478 | 0.199 | 0.33 | 0.275 | 0.281 | 0.2 | 0.333 | 0.403 | 0.541 | 0.364 | 0.3 | 0.35 | 0.382 | 0.328 | 0.307 |
| NCI-H1993 | 0.843 | 0.935 | 0.799 | 0.875 | 0.635 | 0.831 | 0.74 | 0.739 | 0.77 | 0.68 | 0.959 | 1 | 1.04 | 1.35 | 0.998 | 0.661 | 0.5 | 0.512 | 0.589 |
| NCI-H2009 | 0.726 | 0.776 | 0.747 | 0.711 | 0.626 | 1.01 | 1.15 | 0.823 | 0.905 | 0.935 | 0.999 | 0.898 | 0.739 | 0.802 | 0.755 | 0.283 | 0.246 | 0.196 | 0.27 |
| NCI-H2023 | 0.255 | 0.224 | 0.291 | 0.309 | 0.283 | 0.789 | 0.916 | 0.554 | 0.624 | 0.814 | 0.917 | 0.996 | 0.877 | 0.994 | 0.898 | 0.728 | 0.557 | 0.629 | 0.579 |
| NCI-H2085 | 0.432 | 0.404 | 0.456 | 0.432 | 0.519 | 0.376 | 0.474 | 0.286 | 0.403 | 0.546 | 0.952 | 1.03 | 1.16 | 1.06 | 1 | 0.469 | 0.477 | 0.586 | 0.618 |
| NCI-H2087 | 0.799 | 0.836 | 0.926 | 1.03 | 1.13 | 0.136 | 0.186 |  | 0.158 | 0.172 | 0.766 | 0.776 | 0.677 | 0.636 | 0.48 | 0.185 | 0.176 | 0.185 | 0.263 |
| NCI-H2126 | 0.489 | 0.444 | 0.503 | 0.501 | 0.476 | 0.923 | 0.976 | 0.695 | 0.766 | 0.726 | 1.1 | 1.07 | 0.882 | 1.22 | 0.904 | 0.629 | 0.563 | 0.575 | 0.542 |
| NCI-H2228 | 0.254 | 0.507 | 0.513 | 0.427 | 0.319 | 0.0998 | 0.191 | 0.154 | 0.14 | 0.145 | 0.974 | 1.04 | 1.15 | 1.26 | 1.12 | 0.563 | 0.382 | 0.462 | 0.354 |
